The source of these data is paper PMC10794144, “A novel antibiotic class targeting the lipopolysaccharide transporter” (Nature, 2024).

One series relates to HIV-1 protease. In words: Off-target screening (CEREP). The format is biochemical. The note with it: 10 µM, duplicates. The gist of the method:
(§1)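 Compounds are tested at a fixed 10 µM in duplicate, with no concentration–response. Activity is expressed as percent inhibition of either radioligand signal or control enzymatic activity.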

A further series deals with T1, Phosphodiesterase 4D2 (Homo sapiens, UniProt Q08499).
T1 construct: purchased Eurofins CEREP SA
T1 sequence (Q08499 303-809 limits assumed): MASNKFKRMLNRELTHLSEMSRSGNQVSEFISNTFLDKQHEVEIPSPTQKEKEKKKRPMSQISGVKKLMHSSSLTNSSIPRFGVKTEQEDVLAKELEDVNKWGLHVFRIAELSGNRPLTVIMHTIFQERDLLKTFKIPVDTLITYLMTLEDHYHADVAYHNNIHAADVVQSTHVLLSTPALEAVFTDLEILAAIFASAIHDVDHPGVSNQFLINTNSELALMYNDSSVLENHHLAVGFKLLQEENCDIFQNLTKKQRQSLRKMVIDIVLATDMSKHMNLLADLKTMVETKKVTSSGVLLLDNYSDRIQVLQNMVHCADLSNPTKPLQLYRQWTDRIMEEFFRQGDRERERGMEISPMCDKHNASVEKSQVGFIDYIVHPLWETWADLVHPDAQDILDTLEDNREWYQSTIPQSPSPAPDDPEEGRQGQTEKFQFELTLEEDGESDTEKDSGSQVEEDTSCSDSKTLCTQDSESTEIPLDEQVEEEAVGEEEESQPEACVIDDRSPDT
As to the kind of experiment: Off-target screening (CEREP). To be noted: 10 µM, duplicates; read-out: percent inhibition. The format is biochemical. The gist of the method: as §1

The target of another series is T2, ZAP70 kinase (Homo sapiens, UniProt P43403).
T2 construct: purchased Eurofins CEREP SA
T2 sequence (P43403 1-619): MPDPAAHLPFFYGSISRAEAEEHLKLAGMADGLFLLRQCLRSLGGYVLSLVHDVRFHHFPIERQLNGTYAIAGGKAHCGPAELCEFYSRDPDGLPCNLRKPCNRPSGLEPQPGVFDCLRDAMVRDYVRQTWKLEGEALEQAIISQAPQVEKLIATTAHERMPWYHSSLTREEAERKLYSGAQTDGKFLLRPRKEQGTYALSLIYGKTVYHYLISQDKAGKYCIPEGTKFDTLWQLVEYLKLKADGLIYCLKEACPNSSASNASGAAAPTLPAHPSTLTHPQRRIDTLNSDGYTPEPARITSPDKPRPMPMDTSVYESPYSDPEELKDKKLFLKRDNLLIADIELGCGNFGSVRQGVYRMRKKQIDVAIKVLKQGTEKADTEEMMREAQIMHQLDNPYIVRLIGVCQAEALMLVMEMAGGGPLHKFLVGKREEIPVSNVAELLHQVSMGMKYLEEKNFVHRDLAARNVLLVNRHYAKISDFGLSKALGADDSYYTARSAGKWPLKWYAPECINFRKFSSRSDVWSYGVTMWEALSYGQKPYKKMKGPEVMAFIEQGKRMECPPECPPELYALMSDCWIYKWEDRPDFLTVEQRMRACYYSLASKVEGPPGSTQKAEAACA
As to the kind of experiment: Off-target screening (CEREP). The format is biochemical. To be noted: 10 µM, duplicates; read-out: percent inhibition. The gist of the method: as §1

A further series has as its target T3, Acetylcholinesterase (Homo sapiens, UniProt P22303).
T3 construct: purchased Eurofins CEREP SA
As to the kind of experiment: Off-target screening (CEREP). The note with it: 10 µM, duplicates; read-out: percent inhibition. The class given is biochemical. The method, boiled down:
as §1

A further series has as its target T4, GSK-3A (Homo sapiens, UniProt P49840).
T4 construct: purchased Eurofins CEREP SA
In words: Off-target screening (CEREP). The note with it: 10 µM, duplicates; read-out: percent inhibition. The class given is biochemical. The gist of the method: as §1

For a further series, the target named is T5, Matrix metalloprotease-9 (Homo sapiens, UniProt P14780).
T5 construct: purchased Eurofins CEREP SA
T5 sequence (P14780 94-707): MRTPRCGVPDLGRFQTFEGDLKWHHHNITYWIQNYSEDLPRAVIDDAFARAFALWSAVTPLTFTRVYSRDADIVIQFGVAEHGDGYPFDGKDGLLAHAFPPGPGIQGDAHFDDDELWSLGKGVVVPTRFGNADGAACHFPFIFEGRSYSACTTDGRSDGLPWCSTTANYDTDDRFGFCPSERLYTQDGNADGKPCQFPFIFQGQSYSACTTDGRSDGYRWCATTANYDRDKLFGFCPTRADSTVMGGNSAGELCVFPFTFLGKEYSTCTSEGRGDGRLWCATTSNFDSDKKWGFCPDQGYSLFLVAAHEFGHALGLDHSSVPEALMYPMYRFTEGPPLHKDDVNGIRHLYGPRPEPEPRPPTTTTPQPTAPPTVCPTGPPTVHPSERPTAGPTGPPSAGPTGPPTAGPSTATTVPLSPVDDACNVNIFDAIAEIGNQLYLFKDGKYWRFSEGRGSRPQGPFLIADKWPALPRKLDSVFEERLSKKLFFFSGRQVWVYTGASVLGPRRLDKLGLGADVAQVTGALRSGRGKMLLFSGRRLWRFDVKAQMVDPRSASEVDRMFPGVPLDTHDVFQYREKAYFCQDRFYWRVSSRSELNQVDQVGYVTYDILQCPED
As to the kind of experiment: Off-target screening (CEREP). The format is biochemical. To be noted: 10 µM, duplicates; read-out: percent inhibition. The gist of the method: as §1

A further series addresses T6, Monoamine oxidase-A (Homo sapiens, UniProt P21397).
T6 construct: purchased Eurofins CEREP SA
T6 sequence (P21397 1-527): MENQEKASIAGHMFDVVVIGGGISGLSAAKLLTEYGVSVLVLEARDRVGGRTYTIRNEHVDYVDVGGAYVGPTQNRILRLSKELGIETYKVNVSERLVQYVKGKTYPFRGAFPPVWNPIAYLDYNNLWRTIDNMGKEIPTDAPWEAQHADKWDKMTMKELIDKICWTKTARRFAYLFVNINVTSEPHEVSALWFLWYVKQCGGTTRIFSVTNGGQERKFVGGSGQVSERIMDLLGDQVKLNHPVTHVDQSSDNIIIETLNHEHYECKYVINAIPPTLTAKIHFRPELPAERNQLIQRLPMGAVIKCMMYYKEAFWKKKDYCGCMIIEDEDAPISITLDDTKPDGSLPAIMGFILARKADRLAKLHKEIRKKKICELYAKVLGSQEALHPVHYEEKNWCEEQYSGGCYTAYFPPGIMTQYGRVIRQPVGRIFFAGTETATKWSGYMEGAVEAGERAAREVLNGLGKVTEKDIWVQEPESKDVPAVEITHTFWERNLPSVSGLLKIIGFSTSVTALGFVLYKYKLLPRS
In words: Off-target screening (CEREP). The note with it: 10 µM, duplicates; read-out: percent inhibition. The class given is biochemical. The method, boiled down:
as §1

The target of a further series is T7, CDK2 (Homo sapiens, UniProt P24941).
T7 construct: purchased Eurofins CEREP SA
In words: Off-target screening (CEREP). The class given is biochemical. The note with it: 10 µM, duplicates; read-out: percent inhibition. The gist of the method: as §1

For another series, the target named is T8, Cyclooxygenase 2 (Homo sapiens, UniProt P35354).
T8 construct: purchased Eurofins CEREP SA
T8 sequence (P35354 18-604): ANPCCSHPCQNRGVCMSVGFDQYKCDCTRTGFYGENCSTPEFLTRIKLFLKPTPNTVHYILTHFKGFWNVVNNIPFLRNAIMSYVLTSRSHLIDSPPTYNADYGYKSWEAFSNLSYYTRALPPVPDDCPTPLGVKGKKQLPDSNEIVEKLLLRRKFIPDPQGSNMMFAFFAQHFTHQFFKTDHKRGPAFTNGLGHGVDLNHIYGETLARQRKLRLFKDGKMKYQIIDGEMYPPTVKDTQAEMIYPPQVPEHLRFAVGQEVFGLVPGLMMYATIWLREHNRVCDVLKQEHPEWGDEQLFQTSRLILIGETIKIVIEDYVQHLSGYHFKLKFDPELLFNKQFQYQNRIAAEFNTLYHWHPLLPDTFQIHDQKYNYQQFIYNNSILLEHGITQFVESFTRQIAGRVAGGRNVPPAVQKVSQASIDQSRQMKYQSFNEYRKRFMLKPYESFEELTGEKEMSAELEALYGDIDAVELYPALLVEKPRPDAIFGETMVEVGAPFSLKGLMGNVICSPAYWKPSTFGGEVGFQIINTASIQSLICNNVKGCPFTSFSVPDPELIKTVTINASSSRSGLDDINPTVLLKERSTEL
As to the kind of experiment: Off-target screening (CEREP). The note with it: 10 µM, duplicates; read-out: percent inhibition. The format is biochemical. The method, boiled down:
as §1

The target of a further series is T9, Phosphodiesterase 3B (Homo sapiens, UniProt Q13370).
T9 construct: purchased Eurofins CEREP SA
T9 sequence (Q13370 whole entry): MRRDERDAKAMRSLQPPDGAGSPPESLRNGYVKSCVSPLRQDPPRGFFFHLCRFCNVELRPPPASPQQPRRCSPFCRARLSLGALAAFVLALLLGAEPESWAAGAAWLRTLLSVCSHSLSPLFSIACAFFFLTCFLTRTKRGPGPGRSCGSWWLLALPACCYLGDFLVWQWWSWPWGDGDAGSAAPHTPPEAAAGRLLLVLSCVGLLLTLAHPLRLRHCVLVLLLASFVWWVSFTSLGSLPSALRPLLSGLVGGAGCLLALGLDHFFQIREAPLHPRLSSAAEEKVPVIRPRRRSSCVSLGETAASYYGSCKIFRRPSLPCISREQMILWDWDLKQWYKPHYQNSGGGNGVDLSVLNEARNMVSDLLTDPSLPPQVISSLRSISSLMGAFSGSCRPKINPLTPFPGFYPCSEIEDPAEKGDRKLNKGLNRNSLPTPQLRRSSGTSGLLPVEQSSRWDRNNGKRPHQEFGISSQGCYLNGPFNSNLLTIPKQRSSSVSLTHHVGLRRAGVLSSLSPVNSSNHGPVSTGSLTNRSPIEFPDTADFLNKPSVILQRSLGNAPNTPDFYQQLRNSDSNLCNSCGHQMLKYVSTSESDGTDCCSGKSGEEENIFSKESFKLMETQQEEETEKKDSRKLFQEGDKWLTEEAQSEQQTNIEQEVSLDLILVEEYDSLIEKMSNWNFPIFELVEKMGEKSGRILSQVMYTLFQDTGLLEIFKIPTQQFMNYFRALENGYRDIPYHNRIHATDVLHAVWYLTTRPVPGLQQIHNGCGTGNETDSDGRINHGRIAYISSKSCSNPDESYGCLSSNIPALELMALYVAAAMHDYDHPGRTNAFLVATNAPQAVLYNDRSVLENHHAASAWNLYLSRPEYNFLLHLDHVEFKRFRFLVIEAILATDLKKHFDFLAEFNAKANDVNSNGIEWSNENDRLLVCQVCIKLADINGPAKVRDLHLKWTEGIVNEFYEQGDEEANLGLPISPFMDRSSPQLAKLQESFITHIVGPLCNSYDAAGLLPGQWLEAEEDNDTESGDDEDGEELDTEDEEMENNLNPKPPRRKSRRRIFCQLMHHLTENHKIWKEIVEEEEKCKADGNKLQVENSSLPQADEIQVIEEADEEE
As to the kind of experiment: Off-target screening (CEREP). The class given is biochemical. The note with it: 10 µM, duplicates; read-out: percent inhibition. The gist of the method: as §1

The target of a further series is T10, Abl kinase (Homo sapiens, UniProt P00519).
T10 construct: purchased Eurofins CEREP SA
T10 sequence (P00519 whole entry): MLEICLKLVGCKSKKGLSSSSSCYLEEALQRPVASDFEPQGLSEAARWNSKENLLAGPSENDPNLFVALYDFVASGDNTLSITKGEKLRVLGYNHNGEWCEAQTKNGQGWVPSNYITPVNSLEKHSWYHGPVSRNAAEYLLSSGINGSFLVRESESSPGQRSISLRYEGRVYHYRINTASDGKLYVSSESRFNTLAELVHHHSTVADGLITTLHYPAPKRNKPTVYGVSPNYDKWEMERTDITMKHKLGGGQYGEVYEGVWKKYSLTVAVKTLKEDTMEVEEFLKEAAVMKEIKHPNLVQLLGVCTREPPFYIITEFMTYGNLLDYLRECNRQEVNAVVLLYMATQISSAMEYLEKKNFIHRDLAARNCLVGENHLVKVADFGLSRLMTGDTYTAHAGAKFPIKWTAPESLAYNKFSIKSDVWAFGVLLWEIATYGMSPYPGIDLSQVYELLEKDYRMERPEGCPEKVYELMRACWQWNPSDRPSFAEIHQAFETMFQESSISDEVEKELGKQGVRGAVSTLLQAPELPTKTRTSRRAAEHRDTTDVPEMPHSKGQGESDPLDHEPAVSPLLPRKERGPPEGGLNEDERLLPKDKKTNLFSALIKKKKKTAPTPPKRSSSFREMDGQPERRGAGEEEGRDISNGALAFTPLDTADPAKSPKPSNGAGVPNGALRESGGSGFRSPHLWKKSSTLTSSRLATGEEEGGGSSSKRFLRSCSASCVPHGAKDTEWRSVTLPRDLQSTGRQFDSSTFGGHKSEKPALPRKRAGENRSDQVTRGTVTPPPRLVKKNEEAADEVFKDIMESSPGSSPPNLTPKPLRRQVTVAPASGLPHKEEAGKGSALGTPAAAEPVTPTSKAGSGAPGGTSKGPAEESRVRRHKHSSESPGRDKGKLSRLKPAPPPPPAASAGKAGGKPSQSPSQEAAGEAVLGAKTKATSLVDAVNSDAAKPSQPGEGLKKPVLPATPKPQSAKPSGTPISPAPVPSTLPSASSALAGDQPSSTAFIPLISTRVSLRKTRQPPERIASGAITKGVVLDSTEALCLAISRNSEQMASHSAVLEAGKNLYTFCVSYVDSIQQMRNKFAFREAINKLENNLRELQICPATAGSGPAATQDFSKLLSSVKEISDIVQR
As to the kind of experiment: Off-target screening (CEREP). The class given is biochemical. The note with it: 10 µM, duplicates; read-out: percent inhibition. The gist of the method: as §1

Another series addresses CYP3A4 (Homo sapiens, UniProt P08684). In words: CYP inhibition. The format is in vitro ADME.
Another series deals with panel of 50 off-targets. As to the kind of experiment: Off-target activity screening, number of hits in panel of 50. The format is binding. The note with it: > 30% inhibition at 10 μM.
Another series deals with E. coli ATCC 25922. As to the kind of experiment: microbe, parasite or virus in culture. The note with it: Escherichia coli, ATCC25922. The protocol:
MIC determinations were performed using the broth microdilution method and in line with CLSI guidelines M07 and M100 (refs. [37],[38]). Bacterial inocula were prepared by diluting a 0.5 McFarland suspension in CAMHB or lysogeny broth (LB) specifically for A. baylyi isolates. […] MIC values of all of the tested antibiotics were read as the lowest compound concentration inhibiting bacterial growth by naked eye or beyond which the OD600 ceased to decrease.

Marks after values point to notes of the source that are not given here. Bounds are passed on as bounds.

Chain of CYP3A4 (P08684 whole entry): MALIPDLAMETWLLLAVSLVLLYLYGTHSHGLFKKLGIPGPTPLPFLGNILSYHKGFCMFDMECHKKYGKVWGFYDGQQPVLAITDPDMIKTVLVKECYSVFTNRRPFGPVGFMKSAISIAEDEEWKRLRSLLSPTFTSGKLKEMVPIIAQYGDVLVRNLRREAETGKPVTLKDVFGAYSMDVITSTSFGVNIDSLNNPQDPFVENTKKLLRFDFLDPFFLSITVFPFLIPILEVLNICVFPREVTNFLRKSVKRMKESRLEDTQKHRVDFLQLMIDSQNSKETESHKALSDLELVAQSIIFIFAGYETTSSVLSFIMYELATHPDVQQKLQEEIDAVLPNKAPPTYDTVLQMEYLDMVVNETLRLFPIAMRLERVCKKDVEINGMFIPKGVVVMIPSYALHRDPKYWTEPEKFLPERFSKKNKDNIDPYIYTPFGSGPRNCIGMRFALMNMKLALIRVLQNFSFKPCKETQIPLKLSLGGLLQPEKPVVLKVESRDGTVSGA
T3 sequence (P22303 32-614): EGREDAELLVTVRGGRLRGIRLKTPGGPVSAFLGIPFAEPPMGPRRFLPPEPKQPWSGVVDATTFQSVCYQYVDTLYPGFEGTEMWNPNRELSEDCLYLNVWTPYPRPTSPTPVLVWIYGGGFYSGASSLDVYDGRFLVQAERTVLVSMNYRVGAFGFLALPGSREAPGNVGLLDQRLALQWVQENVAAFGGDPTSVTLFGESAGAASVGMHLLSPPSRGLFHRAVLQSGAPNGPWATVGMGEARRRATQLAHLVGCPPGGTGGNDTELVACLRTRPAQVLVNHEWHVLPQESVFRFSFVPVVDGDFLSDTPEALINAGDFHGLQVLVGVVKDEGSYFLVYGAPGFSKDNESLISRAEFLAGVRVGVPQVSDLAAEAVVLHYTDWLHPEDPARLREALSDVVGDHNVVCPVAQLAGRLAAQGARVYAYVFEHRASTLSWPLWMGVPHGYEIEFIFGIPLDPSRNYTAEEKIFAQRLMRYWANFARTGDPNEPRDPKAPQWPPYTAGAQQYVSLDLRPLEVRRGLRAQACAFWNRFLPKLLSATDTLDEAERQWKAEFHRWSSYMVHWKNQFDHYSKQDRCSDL
T4 sequence (P49840 whole entry): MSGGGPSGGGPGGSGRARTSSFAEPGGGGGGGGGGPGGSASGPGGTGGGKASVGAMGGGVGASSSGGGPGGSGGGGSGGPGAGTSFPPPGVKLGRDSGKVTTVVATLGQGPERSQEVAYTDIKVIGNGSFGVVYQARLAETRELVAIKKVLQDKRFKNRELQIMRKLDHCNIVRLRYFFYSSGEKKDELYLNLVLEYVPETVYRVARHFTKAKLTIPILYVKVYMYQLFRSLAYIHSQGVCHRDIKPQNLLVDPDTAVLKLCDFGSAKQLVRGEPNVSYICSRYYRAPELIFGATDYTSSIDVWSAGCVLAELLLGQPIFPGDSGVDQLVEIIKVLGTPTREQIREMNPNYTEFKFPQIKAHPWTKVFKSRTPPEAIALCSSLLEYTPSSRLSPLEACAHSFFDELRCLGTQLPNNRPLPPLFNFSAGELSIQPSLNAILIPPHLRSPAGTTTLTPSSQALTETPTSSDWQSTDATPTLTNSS

In the series with HIV-1 protease, `CN1C(=O)[C@H](CCCCN)NC(=O)[C@H](CCCN)NCc2cccnc2Sc2c(Cl)ccc(-c3ccc(C(=O)O)cc3)c2CNC(=O)[C@@H]1Cc1c[nH]c2ccccc12` [RO7202110] registered a percent inhibition of 12%. In addition, the inhibition (usually the drop in the measured response relative to a control, in per cent) at 10 µM was -3% on Phosphodiesterase 4D2; -39% on ZAP70 kinase; 40% at Acetylcholinesterase; 22% at GSK-3A; 13% on Matrix metalloprotease-9; 11% at Monoamine oxidase-A. The inhibition at 10 µM at CDK2 is 17%; on Cyclooxygenase 2 it was 12%; at Phosphodiesterase 3B, 2%; on Abl kinase, -24%. Further, the “CYP inh. (3A4)” value on CYP3A4 is >50 (3A4) >50 (2C9) >50 (2D6) μM. In addition, the Off-target hits in the series with panel of 50 off-targets is reported as 2 #. For the same compound, the MIC with E. coli ATCC 25922 is above 64 µg/mL.
